Measured values taken from patent US4225619A, “Substituted fluoracylresorcinols” (Boehringer Ingelheim GmBH, priority 1976, dated 1980).
≈ marks a conversion by molar mass, not a printed value.

Assays:
Streptococcus Aronson [1] = test: Serial dilution test; type: cell-based; details: Streptococcus, 18-20 hours at 37° C., read-out: MIC, S.D.T., Streptococcus Aronson
Experimental: (§1) The inhibitory effect on bacteria and fungi was examined by the serial dilution test and the agar diffusion test (hole-test). As bacteria were used: Staphylococcus aureus SG 511, Streptococcus Aronson, Streptococcus pyogenes At CC 86 68; as fungi: Candida albicans AT CC 10231, Trichophyton mentagrophytes AT CC 9129 and Aspergillus niger.
(§2) 2. Glucose broth: for Sc. Aronson and St. pyogenes Recipe see meat extract broth. After sterilization 1 weight percent of glucose is added as a sterile 50% solution.
(§3) The age of the primary cultures is 24 hours for bacteria and 14 days for fungi. The standardization of the suspension of microorganisms is effected using a photometer according to Eppendorf (test tube .phi.14 mm, filter 546 nm) and a suspension for comparison consisting of barium sulfate, this suspension being created by adition of 3.0 ml of 1% barium chloride solution to 97 ml of 1% sulfuric acid. After the standardization the bacteria were further diluted to a concentration of 1:1000 by means of sodium chloride solution, the fungi were used in an undiluted state.
(§4) 40 mgm of the substance were put into a 10 ml measuring flask and filled up to the mark with the solvent (corresponds to a dilution of 1:250=4000 μg/ml). The further dilution series was standardized with distilled water or the respective solvent and the following substance concentrations were prepared: 1000; 250; 62.5 μg/ml.
(§5) The tubes were filled with 4.9 ml of the corresponding liquid nutrient medium. Then 0.1 ml of the substance dilution prepared above was added to each tube, so that the mentioned final concentrations were present. Finally each tube was inoculated with 0.1 ml of the standardized suspension of microorganisms. Control tests merely using the solvent are to be carried out simultaneously.
(§6) Bacteria were incubated at 37° C. for 18-20 hours and fungi at 27° C. for 7 days.
(§7) The measurement is carried out macroscopically defining the minimal inhibitory concentration (the lowest still microbiostatically effective concentration).

[2] = system: Streptococcus pyogenes At CC 86 68; test: Serial dilution test; type: cell-based; details: Streptococcus pyogenes, ATCC8668, 18-20 hours at 37° C., read-out: MIC, S.D.T., Streptococcus pyogenes
Experimental: as §1, §2, §3, §4, §5, §6, §7

Streptococcus Aronson [3] = test: Agar diffusion test (hole-test); type: cell-based; details: 18-20 hours at 37° C., read-out: MIC, A.D.T., Streptococcus Aronson
Experimental: as §1
(§8) 2. Glucose agar: for Sc. Aronson and St. pyogenes Recipe see meat extract agar. After sterilization 1 weight percent of glucose is added as a sterile 50% solution.
as §3, with “addition” for “adition”, “St. aureus SG 511 was” for “the bacteria were further”, “diluted” for “diluted to a concentration of”, “1:1000 and Sc. pyogenes and Aronson 1:100” for “1:1000”, “solution. The” for “solution, the”
(§9) 40 mgm of the substance were put into a 10 ml measuring flask and filled up to the mark with the solvent (corresponds to a dilution of 1:250=4000 μg/ml).
(§10) The dilutions to the concentrations under test were effected with distilled water or the respective solvent.
(§11) 19 ml of the nutrient medium were filled into sterile Petri dishes of a diameter of 8 cm and dried. Subsequently the agar plates were charged with 4 ml of seed agar. 100 ml of seed agar contain 1.25 ml of the suspension of microorganisms, an agar plate thus containing 0.05 ml of the suspension of microorganisms. After solidification of the agar, 5 holes of a diameter of 5 mm were punched into the plates and filled with 0.05 ml of the correspondingly concentrated substance solution.
(§12) Control tests merely using the solvent are to be carried out simultaneously.
as §6
(§13) The diameter of the area of inhibition in mm was measured after having deducted the diameter of the hole.

[4] = system: Streptococcus pyogenes At CC 86 68; test: Agar diffusion test (hole-test); type: cell-based; details: ATCC8668, 18-20 hours at 37° C., read-out: MIC, A.D.T., Streptococcus pyogenes
Experimental: as §1, §8
as §3, with “addition” for “adition”, “St. aureus SG 511 was” for “the bacteria were further”, “diluted” for “diluted to a concentration of”, “1:1000 and Sc. pyogenes and Aronson 1:100” for “1:1000”, “solution. The” for “solution, the”
as §9, §10, §11, §12, §6, §13

[5] = system: Staphylococcus aureus SG 511; test: Agar diffusion test (hole-test); type: cell-based; details: SG511, 18-20 hours at 37° C., read-out: MIC, A.D.T., Staphylococcus aureus SG 511
Experimental: as §1
1. Meat extract agar: for St. aureus SG 511
as §3, with “addition” for “adition”, “St. aureus SG 511 was” for “the bacteria were further”, “diluted” for “diluted to a concentration of”, “1:1000 and Sc. pyogenes and Aronson 1:100” for “1:1000”, “solution. The” for “solution, the”
as §9, §10, §11, §12, §6, §13

Aspergillus niger = test: Serial dilution test; type: cell-based; details: for MIC: Aspergillus niger, 168 h, 27° C. for 7 days, read-out: MIC, S.D.T., Aspergillus niger
Experimental: as §1
(§14) 3. Sabouraud broth: for C. alb., Trich. mnt., A. niger
as §3, §4, §5, §6, §7

[6] = system: Candida albicans AT CC 10231; test: Serial dilution test; type: cell-based; details: for MIC: Candida albicans, ATCC10231, 168 h, 27° C. for 7 days, read-out: MIC, S.D.T., Candida albicans
Experimental: as §1, §14, §3, §4, §5, §6, §7

[7] = target: glucose-6-phosphate-dehydrogenase; test: Inhibition of glucose-6-phosphate-dehydrogenase (G6PDH); type: biochemical; details: for G6PDH-inhibition Ed50, Immediate Inhibition: 25° C. for 5 minutes preincubation; for G6PDH-inhibition Ed50, Inhibition of Incubation: 37° C. for 60 minutes preincubation
Experimental: Measurement of the inhibition of the glucose-6-phosphatedehydrogenase
The equilibrium was observed:
Glucose-6-phosphate+NADP^+ G6-DH gluconic
acid-6-phosphate+NADPH+H^+
(NADP=nicotinamide-adenine-dinycleotide-phosphate, G6P-DH=gluconic acid-6-phosphate-dehydrogenase)
The formation velocity of NADPH is a measure for the enzyme activity; it may be observed by means of the extinction increase at 340, 334 or 366 nm per unit of time.
0.025 ml of glucose-6-phosphate-dehydrogenase (Boehringer Mannheim) were filled up to 10 ml of distilled water (solution I). 100 mgm of nicotinamide-adenine-dinucleotide-phosphate were dissolved in 13 ml of distilled water (solution II). 47.2 mgm of glucose-6-phosphate were dissolved in further 10 ml of distilled water (solution 3). Simultaneously a buffer solution (solution IV) was prepared as follows: 0.28 gm of triethanolamine-hydrochloride and 1.461 gm of ethylene diaminotetraacetic acid-disodium salt were dissolved in 1 liter of distilled water and adjusted to a pH of 7.6 with sodium hydroxide solution. The substance under test was dissolved in dimethyl formamide or ethanol (solution V). Tested concentrations: 50; 25; 12.5; 6.25; 3.125; 1.56 and 0.78 μg/ml.
0.1 ml of solution I, 0.1 ml of solution II, 2.67 ml of solution IV and 0.03 ml of solution V were mixed and kept at 25° C. for 5 minutes. Then 0.1 ml of solution III was added, mixed and the alteration of extinction was determined spectrophotometrically at 366 nm for 3 minutes.
0.1 ml of solution I, 0.1 ml of solution II, 2.67 ml of solution IV and 0.03 ml of solution V were mixed and kept at 37° C. for 60 minutes. Then 0.1 ml of solution III was added, mixed and the alteration of extinction was measured spectrophotometrically at 366 nm for 3 minutes.
The inhibitory values were calculated from the average values of three measurements (alteration of extinction per minute) compared with controls, which received the pure solvent as the inhibitory solution. Then the ED50 was calculated according to Reed and Muench from the inhibitory values for the various concentrations.

[8] = reduced growth at this concentration

| SMILES | MIC (Streptococcus Aronson [1]) [µg/mL] | MIC [2] [µg/mL] | MIC (Streptococcus Aronson [3]) [µg/mL] | MIC [4] [µg/mL] | MIC [5] [µg/mL] | Concentration with reduced growth (value in brackets), S.D.T., Aspergillus niger (Aspergillus niger; [8]) [µg/mL] | Concentration with reduced growth (value in brackets), S.D.T., Candida albicans [6, 8] [µg/mL] | G6PDH-inhibition Ed50, Immediate Inhibition [7] [µg/mL] | G6PDH-inhibition Ed50, Inhibition of Incubation [7] [µg/mL] | MIC (Aspergillus niger) [µg/mL] | MIC [6] [µg/mL] |
| --- | --- | --- | --- | --- | --- | --- | --- | --- | --- | --- | --- |
| CC1CCC(c2c(O)ccc(C(=O)C(F)(F)F)c2O)CC1 (stereo not drawn) [H, 2,4-Dihydroxy-3-(4'-methyl)-cyclohexyl-trifluoro-acetophenone] | 1.25 (≈ 4.14 µM) | 0.31 (≈ 1.03 µM) | ≤ 15.6 | ≤ 15.6 | ≤ 15.6 | 80 | 80 | – | – | – | – |
| CC(C)Cc1c(O)ccc(C(=O)C(F)(F)F)c1O [F, 2,4-Dihydroxy-3-iso-butyl-trifluoroacetophenone] | 1.25 (≈ 4.77 µM) | 1.25 (≈ 4.77 µM) | ≤ 15.6 | ≤ 15.6 | 62.5 (≈ 238 µM) | – | – | 37.7 | 27.7 | 20 (≈ 76.3 µM) | 20 (≈ 76.3 µM) |
| COc1ccc(C(=O)C(F)(F)F)c(OC)c1 [D, 2,4-Dimethoxy-trifluoroacetophenone, reference compound] | > 80 | > 80 | > 4000 | > 4000 | > 4000 | – | – | > 50 | > 50 | > 80 | > 80 |
| CCc1cc(C(=O)C(F)(F)F)c(O)cc1O [B, 5-Ethyl-2,4-dihydroxy-trifluoroacetophenone, reference compound] | 20 (≈ 85.4 µM) | 20 (≈ 85.4 µM) | 250 (≈ 1070 µM) | 250 (≈ 1070 µM) | 250 (≈ 1070 µM) | – | – | 34.5 | 30 | 20 (≈ 85.4 µM) | 20 (≈ 85.4 µM) |
| CC(C)c1c(O)ccc(C(=O)C(F)(F)F)c1O [P, 2,4-Dihydroxy-3-isopropyl-trifluoroacetophenone] | 1.25 (≈ 5.04 µM) | 1.25 (≈ 5.04 µM) | ≤ 15.6 | 62.5 (≈ 252 µM) | 62.5 (≈ 252 µM) | – | – | 14.8 | 9.9 | – | – |
| CCc1c(O)ccc(C(=O)C(F)(F)F)c1O [C, 3-Ethyl-2,4-dihydroxy-trifluoroacetophenone, reference compound] | 5 (≈ 21.4 µM) | 1.25 (≈ 5.34 µM) | 62.5 (≈ 267 µM) | 62.5 (≈ 267 µM) | 62.5 (≈ 267 µM) | – | – | 37.5 | 20 | 5 (≈ 21.4 µM) | 20 (≈ 85.4 µM) |
| O=C(c1ccc(O)cc1O)C(F)(F)F [A, 2,4-Dihydroxy-trifluoroacetophenone, reference compound] | 80 (≈ 388 µM) | – | 1000 (≈ 4850 µM) | – | 1000 (≈ 4850 µM) | – | – | > 50 | 33 | 20 (≈ 97 µM) | 80 (≈ 388 µM) |
